Reference: patent publication US10947188B2, “Small molecule ferroptosis inducers” (THE TRUSTEES OF COLUMBIA UNIVERSITY IN THE CITY OF NEW YORK, priority 2016, dated 2021)

Columns and labels:
BJeLR = assay: Modulatory profiling: Alamar Blue viability, lethal compound cotreated with death modulator (EC50, AUC); format: cell-based, human; set-up: AUC, modulator BJ.Gd3+ / AUC, modulator BJ.LNAME / AUC, modulator BJ.Lmin / AUC, modulator BJ.3MA / AUC, modulator BJ.ALLN / AUC, modulator BJ.Boc D / AUC, modulator BJ.CHX / AUC, modulator BJ.Co2+ / AUC, modulator BJ.Nec-1 / AUC, modulator BJ.Pepstatin / AUC, modulator BJ.TLCK / AUC, modulator BJ.atoc / AUC, modulator BJ.trolox / AUC, modulator BJ.zVAD: unit not given beside the values; conditions: BJeLR cells, modulatory profile value (AUC); for AUC, modulator BJ.3MA: lethal compound cotreated with modulator 3MA; for AUC, modulator BJ.ALLN: lethal compound cotreated with modulator ALLN; for AUC, modulator BJ.Boc D: lethal compound cotreated with modulator Boc D; for AUC, modulator BJ.CHX: lethal compound cotreated with modulator CHX; for AUC, modulator BJ.Co2+: lethal compound cotreated with modulator Co2+; for AUC, modulator BJ.DPQ: lethal compound cotreated with modulator DPQ; for AUC, modulator BJ.Gd3+: lethal compound cotreated with modulator Gd3+; for AUC, modulator BJ.LNAME: lethal compound cotreated with modulator LNAME; for AUC, modulator BJ.Lmin/NAD+: lethal compound cotreated with modulator Lmin/NAD+; for AUC, modulator BJ.Lmin: lethal compound cotreated with modulator Lmin; for AUC, modulator BJ.NAD+: lethal compound cotreated with modulator NAD+; for AUC, modulator BJ.NMMA: lethal compound cotreated with modulator NMMA; for AUC, modulator BJ.Nec-1: lethal compound cotreated with modulator Nec-1; for AUC, modulator BJ.Pepstatin: lethal compound cotreated with modulator Pepstatin; for AUC, modulator BJ.TLCK: lethal compound cotreated with modulator TLCK
HT-1080 = assay: as above; format: cell-based; set-up: AUC, modulator HT.3MA / AUC, modulator HT.ALLN / AUC HT.ATA / AUC HT.ActD / AUC HT.BHA / AUC HT.BHT / AUC HT.BocD / AUC HT.CHX / AUC HT.Co2+ / AUC HT.DPQ / AUC HT.EGTA / AUC HT.Lmim / AUC HT.NAD+ / AUC HT.Nec-1 / AUC HT.SP600125 / AUC HT.TLCK / AUC HT.U0126: unit not given beside the values; conditions: for AUC HT.ATA: HT-1080, modulator ATA; for AUC HT.ActD: HT-1080, modulator ActD; for AUC HT.BHA: HT-1080, modulator BHA; for AUC HT.BHT: HT-1080, modulator BHT; for AUC HT.BocD: HT-1080, modulator BocD; for AUC HT.CHX: HT-1080, modulator CHX; for AUC HT.Co2+: HT-1080, modulator Co2+; for AUC HT.CspA: HT-1080, modulator CspA; for AUC HT.DPQ: HT-1080, modulator DPQ; for AUC HT.EGTA: HT-1080, modulator EGTA; for AUC HT.Gd3+: HT-1080, modulator Gd3+; for AUC HT.LNAME: HT-1080, modulator LNAME; for AUC HT.Lmim: HT-1080, modulator Lmim; for AUC HT.NAD+: HT-1080, modulator NAD+; for AUC HT.NMMA: HT-1080, modulator NMMA; for HT.atoc (AUC) / HT.bCarotene (AUC) / HT.deferox (AUC) / HT.digoxin (AUC) / HT.trolox (AUC) / HT.zVAD (AUC): HT-1080; for HT.atoc (AUC): modulator atoc; for HT.bCarotene (AUC): modulator bCarotene; for HT.deferox (AUC): modulator deferox; for HT.digoxin (AUC): modulator digoxin; for HT.trolox (AUC): modulator trolox; for HT.zVAD (AUC): modulator zVAD

## CC1=CC(C)(C)Nc2ccc(OC(=O)c3cccnc3)cc21 [CIL47]
BJeLR
  AUC, modulator BJ.3MA: 0.1505
  AUC, modulator BJ.ALLN: −0.02628
  AUC, modulator BJ.Boc D: 0.05397
  AUC, modulator BJ.CHX: −0.0269
  AUC, modulator BJ.Co2+: −0.1379
  AUC, modulator BJ.DPQ: 0.06122
  AUC, modulator BJ.Gd3+: −0.02875
  AUC, modulator BJ.LNAME: −0.02479
  AUC, modulator BJ.Lmin/NAD+: −0.01437
  AUC, modulator BJ.Lmin: −0.01696
  AUC, modulator BJ.NAD+: −0.06356
  AUC, modulator BJ.NMMA: 0.04023
  AUC, modulator BJ.Nec-1: −0.02203
  AUC, modulator BJ.Pepstatin: 0.05454
  AUC, modulator BJ.TLCK: −0.03768
BJeLR; lethal compound cotreated with modulator atoc
  AUC, modulator BJ.atoc: 0.03519
BJeLR; lethal compound cotreated with modulator trolox
  AUC, modulator BJ.trolox: −0.02806
BJeLR; lethal compound cotreated with modulator zVAD
  AUC, modulator BJ.zVAD: −0.01497
HT-1080
  AUC HT.ATA: 0.07043
  AUC HT.ActD: 0.01588
  AUC HT.BHA: −0.04478
  AUC HT.BHT: −0.1469
  AUC HT.BocD: −0.009617
  AUC HT.CHX: 0.007874
  AUC HT.Co2+: −0.2381
  AUC HT.CspA: 0.01761
  AUC HT.DPQ: −0.02038
  AUC HT.EGTA: 0.001051
  AUC HT.Gd3+: −0.02263
  AUC HT.LNAME: −0.01288
  AUC HT.Lmim: −0.04173
  AUC HT.NAD+: −0.02784
  AUC HT.NMMA: −0.01195
  HT.atoc (AUC): 0.04666
  HT.bCarotene (AUC): −0.001832
  HT.deferox (AUC): 0.01074
  HT.digoxin (AUC): 0.03489
  HT.trolox (AUC): −0.03828
  HT.zVAD (AUC): −0.005894
HT-1080; HT-1080 cells, lethal compound cotreated with modulator 3MA, modulatory profile value (AUC)
  AUC, modulator HT.3MA: 0.07294
HT-1080; HT-1080 cells, lethal compound cotreated with modulator ALLN, modulatory profile value (AUC)
  AUC, modulator HT.ALLN: 0.2227

## Cc1cc(C)c2c(=O)n(CC(=O)NCCCN3CCN(c4ccccc4F)CC3)sc2n1 [CIL50]
BJeLR
  AUC, modulator BJ.3MA: −0.001613
  AUC, modulator BJ.ALLN: −0.008924
  AUC, modulator BJ.Boc D: 0.03113
  AUC, modulator BJ.CHX: 0.1415
  AUC, modulator BJ.Co2+: −0.0178
  AUC, modulator BJ.DPQ: −0.03869
  AUC, modulator BJ.Gd3+: −0.02113
  AUC, modulator BJ.LNAME: 0.03227
  AUC, modulator BJ.Lmin/NAD+: 0.01676
  AUC, modulator BJ.Lmin: 0.03123
  AUC, modulator BJ.NAD+: −0.08482
  AUC, modulator BJ.NMMA: −0.004554
  AUC, modulator BJ.Nec-1: −0.05683
  AUC, modulator BJ.Pepstatin: 0.003838
  AUC, modulator BJ.TLCK: −0.05225
HT-1080
  AUC HT.ATA: 0.06518
  AUC HT.ActD: −0.00775
  AUC HT.BHA: 0.006655
  AUC HT.BHT: −0.06029
  AUC HT.BocD: 0.004017
  AUC HT.CHX: −0.04825
  AUC HT.Co2+: −0.08688
  AUC HT.CspA: −0.01271
  AUC HT.DPQ: −0.01588
  AUC HT.EGTA: −0.02244
  AUC HT.Gd3+: −0.03877
  AUC HT.LNAME: 0.01806
  AUC HT.Lmim: −0.00536
  AUC HT.NAD+: 0.009799
  AUC HT.NMMA: 0.004196
  HT.atoc (AUC): 0.06547
  HT.bCarotene (AUC): 0.01961
  HT.deferox (AUC): −0.04084
  HT.digoxin (AUC): 0.02124
  HT.trolox (AUC): −0.01565
  HT.zVAD (AUC): 0.02907

## CC(C)C1CC(CCNCc2ccc3c(c2)OCO3)(c2ccccc2)CCO1 (centres unmarked) [CIL51]
BJeLR
  AUC, modulator BJ.3MA: 0.05908
  AUC, modulator BJ.ALLN: −0.2032
  AUC, modulator BJ.Boc D: −0.0008828
  AUC, modulator BJ.CHX: 0.1696
  AUC, modulator BJ.Co2+: 0.06399
  AUC, modulator BJ.DPQ: 0.04077
  AUC, modulator BJ.Gd3+: 0.03263
  AUC, modulator BJ.LNAME: −0.04145
  AUC, modulator BJ.Lmin/NAD+: 0.03468
  AUC, modulator BJ.Lmin: −0.07413
  AUC, modulator BJ.NAD+: −0.01737
  AUC, modulator BJ.NMMA: 0.003016
  AUC, modulator BJ.Nec-1: 0.03451
  AUC, modulator BJ.Pepstatin: −0.06742
  AUC, modulator BJ.TLCK: −0.04421
HT-1080
  AUC HT.ATA: 0.003579
  AUC HT.ActD: 0.02697
  AUC HT.BHA: −0.07965
  AUC HT.BHT: −0.08488
  AUC HT.BocD: −0.01458
  AUC HT.CHX: 0.08663
  AUC HT.Co2+: 0.03908
  AUC HT.CspA: 0.00675
  AUC HT.DPQ: 0.0109
  AUC HT.EGTA: 0.04897
  AUC HT.Gd3+: 0.003288
  AUC HT.LNAME: 0.01091
  AUC HT.Lmim: 0.01293
  AUC HT.NAD+: 0.04394
  AUC HT.NMMA: 0.01562
  HT.atoc (AUC): 0.05135
  HT.bCarotene (AUC): 0.03796
  HT.deferox (AUC): 0.004062
  HT.digoxin (AUC): −0.03821
  HT.trolox (AUC): −0.01257
  HT.zVAD (AUC): 0.007799
